Reference: the supplement of paper PMC3974653
Where a name gives a salt, the structure may show the parent alone.

system: MTT (mouse pheochromocytoma); assay: IC50 of cell viability (ATP content); settings: (24 or 48 h)
Summary of the method: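 The IC50 was fitted with a four-parameter logistic equation to normalised CellTiter-Glo ATP luminescence from MTT mouse pheochromocytoma cells. These cells, in white 1536-well plates, had been treated for 24 or 48 hrs with library compounds at 8 final concentrations between 0.5 nM and 46 µM, and luminescence was read after 15 minutes. Positive-control wells served as 100% and DMSO wells as 0%.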

Compound | IC50 of cell viability
CCN1\C=C(\C(O)=O)C(=O)C2=C1C=C(N3CCNCC3)C(=C2)F [Norfloxacin] | > 46 µM
C#C[C@]1(OC(=O)CCCCCC)CC[C@H]2C3CCC4=CC(=O)CC[C@@H]4[C@H]3CC[C@@]21C (some centres undefined) [Noristerat] | > 46 µM
Oc1ccccc1/C=N/Cc1ccccc1 [Norletimol] | > 46 µM
O[C@H]1\C=C/C2[C@H]3CC4=CC=C(O)C5=C4[C@@]2(CCN3)[C@H]1O5 (some centres undefined) [Normorphine] | > 46 µM
COc1ccc2c(c1OC)C(=O)O[C@H]2[C@H]1c2c(cc3c(c2OC)OCO3)CCN1C [Noscapine] | > 46 µM
[Na+].CO[C@H]1[C@@H](OC(N)=O)[C@@H](O)[C@H](OC2=C(C)C3=C(C=C2)\C(=C(\NC(=O)C4=CC(=C([O-])C=C4)CC=C(C)C)C(=O)O3)O)OC1(C)C [Novobiocin sodium salt] | > 46 µM
C[C@H]1[C@H](O)[C@@H](C)/C=C/C=C/CC/C=C/C=C/C=C/C=C/[C@H](O[C@@H]2O[C@H](C)[C@@H](O)[C@H](N)[C@@H]2O)C[C@@H]2O[C@](O)(C[C@@H](O)[C@H](O)CC[C@@H](O)C[C@@H](O)C[C@@H](O)CC(=O)O[C@H]1C)C[C@H](O)[C@H]2C(=O)O [Nystatin] | > 46 µM
CCCCCCCCOc1ccc(C(=O)c2ccccc2)c(O)c1 [OCTABENZONUM] | > 46 µM
CCOc1cc(-c2nccc3cc(OC)c(OC)cc23)cc(OCC)c1OCC [OCTAVERINUM] | > 46 µM
CC(C)CCCC(C)N (centres undefined) [OCTODRINUM] | > 46 µM
CC(C)(C)CC(C)(C)c1ccc(O)c(-n2nc3ccccc3n2)c1 [OCTRIZOLUM] | > 46 µM
CCCCCCCCCCC(CO)CCCCCCCC (centres undefined) [OCTYLDODECANOL] | > 46 µM
CCCCCCCCOc1ccccc1C(=O)Nc1ccc(C(=O)OCC[N+](C)(CC)CC)cc1 [OCTYLONIUM BROMIDE] | > 46 µM
CCCC1=NC(=C([N]1CC2=CC=C(C=C2)C3=CC=CC=C3C4=N[NH]N=N4)C(=O)OCC/5=C(C)/OC(=O)O5)C(C)(C)O [OLMESARTAN MEDOXOMIL] | > 46 µM
CN(C)CC/C=C1\c2ccccc2COc2ccc(CC(=O)O)cc21 [OLOPATADINE HYDROCHLORIDE] | > 46 µM
O=C([O-])c1cc(/N=N/c2ccc(O)c(C(=O)[O-])c2)ccc1O [OLSALAZINE SODIUM] | > 46 µM
CCN(CC)c1ccc(/N=N/c2ccc([S+](=O)([O-])N(C)C)cc2)c([S+](=O)([O-])NCC[n+]2ccccc2)c1 [ORANGE OIL] | > 46 µM
CCCCCCCCCCCC(CC1OC(=O)C1CCCCCC)OC(=O)C(CC(C)C)NC=O (centres undefined) [ORLISTAT] | > 46 µM
COc1ccc2c(c1)OC(C)(C)C(c1ccccc1)C2c1ccc(OCCN2CCCC2)cc1 (centres undefined) [ORMELOXIFENUM] | > 46 µM
COc1cc(C)c(Cc2cnc(N)nc2N)cc1OC [ORMETOPRIM] | > 46 µM

Compound | IC50 of cell viability
Cc1ccccc1C(OCCN(C)C)c1ccccc1.O=C(O)CC(O)(CC(=O)O)C(=O)O (centres undefined) [ORPHENADRINE CITRATE] | > 46 µM
CCOC(=O)C/1=C/C(OC(CC)CC)C(NC(C)=O)C(N)C1.OC(C(O)C(O)=O)C(O)=O (centres undefined) [OSELTAMIVIR TARTRATE] | > 46 µM
O=C([O-])c1nc(O)nc(O)n1 [OTERACIL POTASSIUM] | > 46 µM
CC1OC(O[C@H]2C[C@@H](O)[C@]3(CO)[C@H]4[C@H](O)C[C@]5(C)[C@@H](C6=CC(=O)OC6)CC[C@]5(O)[C@@H]4CC[C@]3(O)C2)C(O)C(O)C1O (some centres undefined) [OUABAIN] | > 46 µM
CC12CCC3C4CCC(=O)C(O)=C4CCC3C1CCC2OC(=O)CCC1CCCC1 (centres undefined) [OXABOLONE CIPIONATE] | > 46 µM
CC(=O)N1CC(O)CC1C(=O)O (centres undefined) [OXACEPROLUM] | > 46 µM
O=C1[O][Pt]2([NH]C3CCCCC3[NH]2)[O]C1=O (centres undefined) [OXALIPLATIN] | > 46 µM
NC1CCCCC1N.O=C([O-])C(=O)[O-].[Pt+2] (centres undefined) [OXALIPLATIN] | > 46 µM
CC(CC(=O)O)(CC(=O)O)C(=O)O.CCN(CC)CCOCCOC(=O)C(CC)(CC)c1ccccc1 [OXELADIN TANNATE] | > 46 µM
NC(C(=O)O)c1ccc(O)cc1 (centres undefined) [OXFENICINUM] | > 46 µM
Clc1ccc(CO/N=C(\Cn2ccnc2)c2ccc(Cl)cc2Cl)c(Cl)c1.O=[N+]([O-])O [OXICONAZOLE NITRATE] | > 46 µM
Cl.NCCc1cc(O)c(O)cc1O [OXIDOPAMINE HYDROCHLORIDE] | > 46 µM
CCN1\C=C(\C(O)=O)C(=O)C2=C1C=C3OCOC3=C2 [OXOLINIC ACID] | > 46 µM
CC(CN(C)C)CN1c2ccccc2[S+](=O)([O-])c2ccccc21 (centres undefined) [OXOMEMAZINE HCl] | > 46 µM
Cn1c(=O)c2[nH]cnc2n(C)c1=O [OXTRIPHYLLINE] | > 46 µM
CC1=CC(=C(O)C(=C1C\C2=N\CCN2)C)C(C)(C)C [OXYMETAZOLINE] | > 46 µM
Cl.CN\1CCC\N=C1COC(=O)C(O)(C2CCCCC2)C3=CC=CC=C3 (centres undefined) [OXYPHENCYCLIMINE HYDROCHLORIDE] | > 46 µM
CC[N+](C)(CC)CCOC(=O)C(O)(c1ccccc1)C1CCCCC1 (centres undefined) [OXYPHENONIUM BROMIDE] | > 46 µM
CN(C)C1C(=O)C(C(N)=O)C(=O)C2(O)C(=O)C3C(=O)c4c(O)cccc4C(C)(O)C3C(O)C12 (centres undefined) [OXYTETRACYCLINE] | > 46 µM
CCC(C)C1NC(=O)C(Cc2ccc(O)cc2)NC(=O)C(N)CSSCC(C(=O)N2CCCC2C(=O)NC(CC(C)C)C(=O)NCC(N)=O)NC(=O)C(CC(N)=O)NC(=O)C(CCC(N)=O)NC1=O (centres undefined) [OXYTOCIN] | > 46 µM

Compound | IC50 of cell viability
CC1CC(=O)N/N=C1/C2=CC=C(NCC(C)(C)NCC(O)COC3=C(C=CC(=C3)Cl)C#N)C=C2 (centres undefined) [Oberadilol] | > 46 µM
CCCCC(CC)COC(=O)/C=C/c1ccc(OC)cc1 (centres undefined) [Octinoxate] | > 46 µM
CCCCC(CC)COC(=O)c1ccccc1O (centres undefined) [Octisalate] | > 46 µM
CCCCC(CC)COC(=O)C(C#N)=C(c1ccccc1)c1ccccc1 (centres undefined) [Octocrylene] | > 46 µM
C[C@@H](O)[C@@H]1NC(=O)[C@H](CCCCN)NC(=O)[C@@H](Cc2c[nH]c3ccccc23)NC(=O)[C@H](Cc2ccccc2)NC(=O)[C@@H](NC(=O)[C@H](N)Cc2ccccc2)CSSC[C@@H](C(=O)N[C@H](CO)[C@@H](C)O)NC1=O [Octreotide] | > 46 µM
C[C@@H]1COC2=C3N1\C=C(\C(O)=O)C(=O)C3=CC(=C2N4CCN(C)CC4)F [Ofloxacin] | > 46 µM
CO[C@H]1C[C@H](O[C@@H]2[C@H](C)[C@H](O[C@@H]3O[C@@H](C)C[C@@H](N(C)C)[C@H]3O)[C@H](C)C[C@]3(CO3)C(=O)[C@H](C)[C@H](O)[C@H](C)[C@H](C)OC(=O)[C@@H]2C)O[C@@H](C)[C@H]1O [Oleandomycin phosphate] | > 46 µM
CCCCCCCC/C=C\CCCCCCCC(=O)O [Oleic acid] | > 46 µM
CCCCCCCC/C=C\CCCCCCCC(=O)NCc1ccc(O)c(OC)c1 [Olvanil] | > 46 µM
COc1ccc2[nH]c([S+]([O-])Cc3ncc(C)c(OC)c3C)nc2c1 (centres undefined) [Omeprazole] | > 46 µM
Cc1nccn1C[C@@H]1CCc2c(c3ccccc3n2C)C1=O [Ondansetron Hydrochloride] | > 46 µM
Cc1nccn1CC1CCc2c(c3ccccc3n2C)C1=O (centres undefined) [Ondansetron] | > 46 µM
COc1ccc(/C=N/NC(=O)c2ccncc2)c(C(=O)O)c1OC [Opiniazida] | > 46 µM
OCCN1CCN(CCCN2C3=C(C=CC=C3)\C=C/C4=C2C=CC=C4)CC1 [Opipramol HCl] | > 46 µM
C[C@@H]1CN(c2c(F)c(F)c3c(=O)c(C(=O)O)cn(C4CC4)c3c2F)C[C@H](C)N1 [Orbifloxacin] | > 46 µM
Cc1ncc([N+](=O)[O-])n1C[C@H](O)CCl [Ornidazole] | > 46 µM
O=C(O)c1cc(O)nc(O)n1 [Orotic acid] | > 46 µM
Cc1ccccc1C(OCCN(C)C)c1ccccc1 (centres undefined) [Orphenadrine citrate salt] | > 46 µM
CCCN(CCC)c1c([N+](=O)[O-])cc([S+](N)(=O)[O-])cc1[N+](=O)[O-] [Oryzalin] | > 46 µM
